Measurements published in patent EP1953147A1, “HETEROCYCLIC COMPOUND AND MEDICINAL APPLICATION THEREOF” (priority 2005, dated 2007).
Where a name gives a salt, the structure may show the parent alone.

test system: ΔG/SEAP/HCV E1E2; assay: Effect of test substance on cell infection with HCV pseudotype virus (SEAP reporter assay in HepG2 cells); assay type: cell-based; conditions: Hepatitis C virus

Compound	IC50 [nM]
COc1cc(C)cc(-c2nn(-c3cc(N4CC[C@H](O)C4)ccc3C(F)(F)F)c(=O)c3c2CCC3)c1 [Example 7, 2-[5-((S)-3-hydroxy-pyrrolidin-1-yl)-2-trifluoromethyl-phenyl]-4-(3-methoxy-5-methyl-phenyl)-2,5,6,7-tetrahydro-cyclopenta[d]pyridazin-1-one]	< 100
COc1cc(OC)cc(-c2nn(-c3cc(NCC4CCCC4)ccc3C(F)(F)F)c(=O)c3c2CCC3)c1 [Example 148, 2-[5-(cyclopentylmethyl-amino)-2-trifluoromethylphenyl]-4-(3,5-dimethoxy-phenyl)-2,5,6,7-tetrahydro-cyclopenta[d]pyridazin-1-one]	100 to 10000
COc1cc(OC)cc(-c2nn(-c3cc(NCCNC(=O)OC(C)(C)C)ccc3C(F)(F)F)c(=O)c3c2CCC3)c1 [Example 118, (2-{3-[4-(3,5-dimethoxy-phenyl)-1-oxo-1,5,6,7-tetrahydro-cyclopenta[d]pyridazin-2-yl]-4-trifluoromethyl-phenylamino}-ethyl)-carbamic acid tert-butyl ester]	< 100
O=c1c2c(c(-c3ccc(Cl)cc3)nn1-c1cc(N3CC[C@H](O)C3)ccc1C(F)(F)F)CCC2 [Example 78, 4-(4-chloro-phenyl)-2-[5-((S)-3-hydroxy-pyrrolidin-1-yl)-2-trifluoromethyl-phenyl]-2,5,6,7-tetrahydro-cyclopenta[d]pyridazin-1-one]	< 100
COc1cc(OC)cc(-c2nn(-c3cc(N4CCCC4=O)ccc3C(F)(F)F)c(=O)c3c2CCC3)c1 [Example 150, 4-(3,5-dimethoxy-phenyl)-2-[5-(2-oxo-pyrrolidin-1-yl)-2-trifluoromethyl-phenyl]-2,5,6,7-tetrahydro-cyclopenta[d]pyridazin-1-one]	< 100
O=c1c2c(c(-c3ccc(C(F)(F)F)cc3)nn1-c1cc(N3CC[C@H](O)C3)ccc1C(F)(F)F)CCC2 [Example 75, 2-[5-((S)-3-hydroxy-pyrrolidin-1-yl)-2-trifluoromethyl-phenyl]-4-(4-trifluoromethyl-phenyl)-2,5,6,7-tetrahydro-cyclopenta[d]pyridazin-1-one]	100 to 10000
COc1cc(OC)cc(-c2nn(-c3cc(N4CC[C@@H](O)C4)ccc3C(F)(F)F)c(=O)c3c2CCN3C(=O)OC(C)(C)C)c1 [Example 59, 4-(3,5-dimethoxy-phenyl)-6-[5-((R)-3-hydroxy-pyrrolidin-1-yl)-2-trifluoromethyl-phenyl]-7-oxo-2,3,6,7-tetrahydro-pyrrolo[2,3-d]pyridazine-1-carboxylic acid tert-butyl ester]	< 100
O=c1c2c(c(-c3ccccc3Cl)nn1-c1cc(N3CC[C@H](O)C3)ccc1C(F)(F)F)CCC2 [Example 96, 4-(2-chloro-phenyl)-2-[5-((S)-3-hydroxy-pyrrolidin-1-yl)-2-trifluoromethyl-phenyl]-2,5,6,7-tetrahydro-cyclopenta[d]pyridazin-1-one]	100 to 10000
CCC(=O)Nc1ccc(C(F)(F)F)c(-n2nc(-c3cc(OC)cc(OC)c3)c3c(c2=O)CCC3)c1 [Example 57, N-{3-[4-(3,5-dimethoxy-phenyl)-1-oxo-1,5,6,7-tetrahydro-cyclopenta[d]pyridazin-2-yl]-4-trifluoromethyl-phenyl}-propionamide]	< 100
COc1cc(OC)cc(-c2nn(-c3cc(NCCCC(N)=O)ccc3C(F)(F)F)c(=O)c3c2CCC3)c1 [Example 152, 4-{3-[4-(3,5-dimethoxy-phenyl)-1-oxo-1,5,6,7-tetrahydro-cyclopenta[d]pyridazin-2-yl]-4-trifluoromethyl-phenylamino}-butyramide]	< 100
COc1cc(OC)cc(-c2nn(-c3cc(NCCNS(C)(=O)=O)ccc3C(F)(F)F)c(=O)c3c2CCC3)c1 [Example 137, N-(2-{3-[4-(3,5-dimethoxy-phenyl)-1-oxo-1,5,6,7-tetrahydro-cyclopenta[d]pyridazin-2-yl]-4-trifluoromethyl-phenylamino}-ethyl)-methanesulfonamide]	< 100
COc1cc(OC)cc(-c2nn(-c3cc(NCCC(=O)OC(C)(C)C)ccc3C(F)(F)F)c(=O)c3c2CCC3)c1 [Example 115, 3-{3-[4-(3,5-dimethoxy-phenyl)-1-oxo-1,5,6,7-tetrahydro-cyclopenta[d]pyridazin-2-yl]-4-trifluoromethyl-phenylamino}-propionic acid tert-butyl ester]	< 100
COc1cncc(-c2nn(-c3cc(N4CC[C@H](O)C4)ccc3C(F)(F)F)c(=O)c3c2CCN3C(N)=O)c1 [Example 1-29, 6-[5-((S)-3-hydroxy-pyrrolidin-1-yl)-2-trifluoromethylphenyl]-4-(5-methoxy-pyridin-3-yl)-7-oxo-2,3,6,7-tetrahydro-pyrrolo[2,3-d]pyridazine-1-carboxamide]	< 100
CNCCNc1ccc(C(F)(F)F)c(-n2nc(-c3cc(OC)cc(OC)c3)c3c(c2=O)CCC3)c1 [Example 157, 4-(3,5-dimethoxy-phenyl)-2-[5-(2-methylamino-ethylamino)-2-trifluoromethyl-phenyl]-2,5,6,7-tetrahydro-cyclopenta[d]pyridazin-1-one hydrochloride]	100 to 10000
COc1cc(OC)cc(-c2nn(-c3ccc(Br)cc3C(F)(F)F)c(=O)c3c2CCC3)c1 [Example 106, 2-(4-bromo-2-trifluoromethyl-phenyl)-4-(3,5-dimethoxy-phenyl)-2,5,6,7-tetrahydro-cyclopenta[d]pyridazin-1-one]	100 to 10000
CN(C)c1cccc(-c2nn(-c3cc(N4CC[C@H](O)C4)ccc3C(F)(F)F)c(=O)c3c2CCC3)c1 [Example 85, 4-(3-dimethylamino-phenyl)-2-[5-((S)-3-hydroxy-pyrrolidin-1-yl)-2-trifluoromethyl-phenyl]-2,5,6,7-tetrahydro-cyclopenta[d]pyridazin-1-one]	< 100
COc1cc(OC)cc(-c2nn(-c3cc(N(C)C)ccc3C(F)(F)F)c(=O)c3c2CCC3)c1 [Example 81, 4-(3,5-dimethoxy-phenyl)-2-(5-dimethylamino-2-trifluoromethyl-phenyl)-2,5,6,7-tetrahydro-cyclopenta[d]pyridazin-1-one]	< 100
O=c1c2c(c(-c3cccc(Br)c3)nn1-c1cc(N3CC[C@H](O)C3)ccc1C(F)(F)F)CCC2 [Example 73, 4-(3-bromo-phenyl)-2-[5-((S)-3-hydroxy-pyrrolidin-1-yl)-2-trifluoromethyl-phenyl]-2,5,6,7-tetrahydro-cyclopenta[d]pyridazin-1-one]	< 100
COc1cc(OC)cc(-c2nn(-c3cc(N4CC[C@H](O)C4)ccc3C(F)(F)F)c(=O)c3c2CCN3CC(=O)NCCCCNC(C)=O)c1 [Example 44, N-(4-acetylamino-butyl)-2-{4-(3,5-dimethoxy-phenyl)-6-[5-((S)-3-hydroxy-pyrrolidin-1-yl)-2-trifluoromethyl-phenyl]-7-oxo-2,3,6,7-tetrahydro-pyrrolo[2,3-d]pyridazin-1-yl}-acetamide]	< 100
COc1cc(OC)cc(-c2nn(-c3cc(N4CC[C@H](O)C4)ccc3C(F)(F)F)c(=O)c3c2CCN3C)c1 [Example 54, 4-(3,5-dimethoxy-phenyl)-6-[5-((S)-3-hydroxy-pyrrolidin-1-yl)-2-trifluoromethyl-phenyl]-1-methyl-1,2,3,6-tetrahydro-pyrrolo[2,3-d]pyridazin-7-one]	< 100
COc1cc(OC)cc(-c2nn(-c3cc(N4CC(CO)C4)ccc3C(F)(F)F)c(=O)c3c2CCCN3CCO)c1 [Example 1-40, 5-(3,5-dimethoxy-phenyl)-1-(2-hydroxy-ethyl)-7-[5-(3-hydroxymethyl-azetidin-1-yl)-2-trifluoromethylphenyl]-1,3,4,7-tetrahydro-2H-pyrido[2,3-d]pyridazin-8-one]	< 100
COc1cc(OC)cc(-c2nn(-c3cc(NCC(=O)OC(C)(C)C)ccc3C(F)(F)F)c(=O)c3c2CCC3)c1 [Example 94, {3-[4-(3,5-dimethoxy-phenyl)-1-oxo-1,5,6,7-tetrahydro-cyclopenta[d]pyridazin-2-yl]-4-trifluoromethyl-phenylamino}-acetic acid tert-butyl ester]	100 to 10000
O=C(O)c1cccc(-c2nn(-c3cc(N4CC[C@H](O)C4)ccc3C(F)(F)F)c(=O)c3c2CCC3)c1 [Example 79, 3-{3-[5-((S)-3-hydroxy-pyrrolidin-1-yl)-2-trifluoromethyl-phenyl]-4-oxo-4,5,6,7-tetrahydro-3H-cyclopenta[d]pyridazin-1-yl}-benzoic acid]	100 to 10000
COc1cc(OC)cc(-c2nn(-c3cc(NCC(C)O)ccc3C(F)(F)F)c(=O)c3c2CCC3)c1 (stereo not shown) [Example 132, 4-(3,5-dimethoxy-phenyl)-2-[5-(2-hydroxy-propylamino)-2-trifluoromethyl-phenyl]-2,5,6,7-tetrahydro-cyclopenta[d]pyridazin-1-one]	< 100
COc1cc(OC)cc(-c2nn(-c3cc(C(=O)O)ccc3C(F)(F)F)c(=O)c3c2CCC3)c1 [Example 1-10, 3-[4-(3,5-dimethoxy-phenyl)-1-oxo-1,5,6,7-tetrahydro-cyclopenta[d]pyridazin-2-yl]-4-trifluoromethyl-benzoic acid]	100 to 10000
Cc1cc(C)cc(-c2nn(-c3cc(-c4cccnn4)ccc3C(F)(F)F)c(=O)c3c2CC(C)N3)c1 (stereo not shown) [Example 12, 4-(3,5-dimethyl-phenyl)-2-methyl-6-(5-pyridazin-3-yl-2-trifluoromethyl-phenyl)-1,2,3,6-tetrahydro-pyrrolo[2,3-d]pyridazin-7-one]	< 100
COc1cc(OC)cc(-c2nn(-c3cc(N4CC[C@H](O)C4)ccc3C(F)(F)F)c(=O)c3c2CCN3CC(=O)N2CCN(C(C)=O)CC2)c1 [Example 41, 1-[2-(4-acetyl-piperazin-1-yl)-2-oxo-ethyl]-4-(3,5-dimethoxy-phenyl)-6-[5-((S)-3-hydroxy-pyrrolidin-1-yl)-2-trifluoromethyl-phenyl]-1,2,3,6-tetrahydro-pyrrolo[2,3-d]pyridazin-7-one]	< 100
CCCCCC(=O)NCCNC(=O)CN1CCc2c(-c3cc(OC)cc(OC)c3)nn(-c3cc(N4CC[C@H](O)C4)ccc3C(F)(F)F)c(=O)c21 [Example 46, hexanoic acid [2-(2-{4-(3,5-dimethoxy-phenyl)-6-[5-((S)-3-hydroxy-pyrrolidin-1-yl)-2-trifluoromethylphenyl]-7-oxo-2,3,6,7-tetrahydro-pyrrolo[2,3-d]pyridazin-1-yl}-acetylamino)-ethyl]-amide]	< 100
